According to patent US8686150B2 (Sanofi, priority 2011, dated 2014):

Biological target: T1, human full-length recombinant PKC βII (Homo sapiens, UniProt P05771)
T1 construct: Active human full-length recombinant PKC βII; purchased Invitrogen GmbH, Darmstadt, Germany
Assay: Determination of PKC βII inhibition (Caliper mobility-shift kinase assay, Fluorescein-RFARKGSLRQKNV peptide substrate)
Assay type: biochemical
Conditions: example compounds at a final concentration of 1.14 μM (±0.15 μM)
In short: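 Compounds were tested at 1.14 μM final. Enzyme was activated by PS, DAG and CaCl2 in Hepes pH 7.4 with MgCl2, with substrate 3 μM and ATP 120 μM as pre-mix concentrations. After 60 min at 32 °C and an EDTA stop, Caliper separation gave fractional turnover, which was normalised to no-compound and no-enzyme controls.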

T1 sequence (P05771 1-673 isoform P05771-2): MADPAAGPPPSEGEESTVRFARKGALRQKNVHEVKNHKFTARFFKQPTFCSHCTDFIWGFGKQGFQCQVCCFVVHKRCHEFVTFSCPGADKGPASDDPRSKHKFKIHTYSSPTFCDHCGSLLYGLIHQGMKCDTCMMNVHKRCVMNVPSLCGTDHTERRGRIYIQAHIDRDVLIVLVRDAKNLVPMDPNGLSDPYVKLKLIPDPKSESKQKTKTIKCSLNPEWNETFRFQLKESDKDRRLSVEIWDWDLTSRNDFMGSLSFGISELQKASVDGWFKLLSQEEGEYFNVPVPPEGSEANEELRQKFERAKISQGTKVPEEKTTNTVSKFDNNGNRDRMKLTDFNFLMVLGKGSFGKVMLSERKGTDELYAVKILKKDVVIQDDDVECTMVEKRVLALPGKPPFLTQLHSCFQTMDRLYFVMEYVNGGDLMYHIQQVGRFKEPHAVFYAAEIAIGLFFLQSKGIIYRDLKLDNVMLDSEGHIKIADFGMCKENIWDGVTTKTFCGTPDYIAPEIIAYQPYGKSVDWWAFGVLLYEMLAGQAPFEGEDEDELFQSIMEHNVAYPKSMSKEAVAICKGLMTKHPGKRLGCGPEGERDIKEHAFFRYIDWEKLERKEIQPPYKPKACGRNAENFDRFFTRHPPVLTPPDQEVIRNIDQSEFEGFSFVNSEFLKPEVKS

CC[C@H]1CNCCN1C(=O)c1cc(-c2ccc(O)cc2F)nc2[nH]nc(C)c12 [Example 431, ((S)-2-Ethyl-piperazin-1-yl)-[6-(2-fluoro-4-hydroxy-phenyl)-3-methyl-1H-pyrazolo[3,4-b]pyridin-4-yl]-methanone]
inhibition at 1.14 µM: 97%

Cc1n[nH]c2nc(-c3ccc(O)cc3)cc(C(=O)N3CCC4(CCNC4)C3)c12 (centres unmarked) [Example 256, (2,7-Diaza-spiro[4.4]non-2-yl)-[6-(4-hydroxy-phenyl)-3-methyl-1H-pyrazolo[3,4-b]pyridin-4-yl]-methanone]
inhibition at 1.14 µM: 86%

Cc1n[nH]c2nc(-c3ccc(O)c(F)c3)cc(C(=O)NC3CCCN(C)C3)c12 (centres unmarked) [Example 355, 6-(3-Fluoro-4-hydroxy-phenyl)-3-methyl-1H-pyrazolo[3,4-b]pyridine-4-carboxylic acid (1-methyl-piperidin-3-yl)-amide]
inhibition at 1.14 µM: 60%

Cc1n[nH]c2nc(-c3ccc(O)cc3)cc(C(=O)NCC3CCCCN3)c12 (centres unmarked) [Example 245, 6-(4-Hydroxy-phenyl)-3-methyl-1H-pyrazolo[3,4-b]pyridine-4-carboxylic acid (piperidin-2-ylmethyl)-amide]
inhibition at 1.14 µM: 83%

Cc1n[nH]c2nc(-c3ccc(O)cc3)cc(C(=O)NCC(c3ccccc3)N3CCCC3)c12 (centres unmarked) [Example 391, 6-(4-Hydroxy-phenyl)-3-methyl-1H-pyrazolo[3,4-b]pyridine-4-carboxylic acid (2-phenyl-2-pyrroiidin-1-yl-ethyl)-amide]
inhibition at 1.14 µM: 84%

COC(=O)[C@H]1CN(C(=O)c2cc(-c3ccc(O)c(F)c3)nc3[nH]nc(C)c23)CCN1 [Example 297, (R)-4-[6-(3-Fluoro-4-hydroxy-phenyl)-3-methyl-1H-pyrazolo[3,4-b]pyridine-4-carbonyl]-piperazine-2-carboxylic acid methyl ester]
inhibition at 1.14 µM: 34%

Cc1n[nH]c2nc(-c3ccc(O)cc3F)cc(C(=O)N3CCN[C@H](C)C3)c12 [Example 426, [6-(2-Fluoro-4-hydroxy-phenyl)-3-methyl-1H-pyrazolo[3,4-b]pyridin-4-yl]-((R)-3-methyl-piperazin-1-yl)-methanone]
inhibition at 1.14 µM: 87%

Cc1n[nH]c2nc(-c3ccc(O)c(F)c3)cc(C(=O)NCC(C)(C)N3CCN(C)CC3)c12 [Example 362, 6-(3-Fluoro-4-hydroxy-phenyl)-3-methyl-1H-pyrazolo[3,4-b]pyridine-4-carboxylic acid [2-methyl-2-(4-methyl-piperazin-1-yl)-propyl]-amide]
inhibition at 1.14 µM: 80%

O=C(c1cc(-c2ccc(O)cc2)nc2[nH]nc(C(F)(F)F)c12)N1CCNCC1 [Example 5, [6-(4-Hydroxy-phenyl)-3-trifluoromethyl-1H-pyrazolo[3,4-b]pyridin-4-yl]-piperazin-1-yl-methanone]
inhibition at 1.14 µM: 74%

Cc1cc(O)ccc1-c1cc(C(=O)N2CCNCC2c2ccc(C(F)(F)F)cc2)c2c(C)n[nH]c2n1 (centres unmarked) [Example 154, [6-(4-Hydroxy-2-methyl-phenyl)-3-methyl-1H-pyrazolo[3,4-b]pyridin-4-yl]-[2-(4-trifluoromethyl-phenyl)-piperazin-1-yl]-methanone]
inhibition at 1.14 µM: 94%

Cc1n[nH]c2nc(-c3ccc(O)cc3F)cc(C(=O)N3C(C)CNCC3C)c12 (centres unmarked) [Example 444, (2,6-Dimethyl-piperazin-1-yl)-[6-(2-fluoro-4-hydroxy-phenyl)-3-methyl-1H-pyrazolo[3,4-b]pyridin-4-yl]-methanone]
inhibition at 1.14 µM: 99%

Cc1cc(O)ccc1-c1cc(C(=O)N2CCNCC2c2ccc(Br)cc2)c2c(C)n[nH]c2n1 (centres unmarked) [Example 137, [2-(4-Bromo-phenyl)-piperazin-1-yl]-[6-(4-hydroxy-2-methyl-phenyl)-3-methyl-1H-pyrazolo[3,4-b]pyridin-4-yl]-methanone]
inhibition at 1.14 µM: 99%

Cc1n[nH]c2nc(-c3ccc(O)c(F)c3)cc(C(=O)N3CCNCC3)c12 [Example 7, [6-(3-Fluoro-4-hydroxy-phenyl)-3-methyl-1H-pyrazolo[3,4-b]pyridin-4-yl]-piperazin-1-yl-methanone]
inhibition at 1.14 µM: 91%

CCCC1(N)CCCN(C(=O)c2cc(-c3ccc(O)cc3)nc3[nH]nc(C)c23)C1 (centres unmarked) [Example 48, (3-Amino-3-propyl-piperidin-1-yl)-[6-(4-hydroxy-phenyl)-3-methyl-1H-pyrazolo[3,4-b]pyridin-4-yl]-methanone]
inhibition at 1.14 µM: 70%

COC(=O)C1(N)CCN(C(=O)c2cc(-c3ccc(O)cc3)nc3[nH]nc(C)c23)CC1 [Example 283, 4-Amino-1-[6-(4-hydroxy-phenyl)-3-methyl-1H-pyrazolo[3,4-b]pyridine-4-carbonyl]-piperidine-4-carboxylic acid methyl ester]
inhibition at 1.14 µM: 45%

Cc1cc(O)ccc1-c1cc(C(=O)N2CCNCC2c2cc(F)cc(F)c2)c2c(C)n[nH]c2n1 (centres unmarked) [Example 136, [2-(3,5-Difluoro-phenyl)-piperazin-1-yl]-[6-(4-hydroxy-2-methyl-phenyl)-3-methyl-1H-pyrazolo[3,4-b]pyridin-4-yl]-methanone]
inhibition at 1.14 µM: 100%

Cc1n[nH]c2nc(-c3ccc(O)cc3)cc(C(=O)N3CCNCC3c3ccc(F)cc3)c12 (centres unmarked) [Example 84, [2-(4-Fluoro-phenyl)-piperazin-1-yl]-[6-(4-hydroxy-phenyl)-3-methyl-1H-pyrazolo[3,4-b]pyridin-4-yl]-methanone]
inhibition at 1.14 µM: 101%

CCc1n[nH]c2nc(-c3ccc(O)cc3)cc(C(=O)NC3CCCC(N)C3)c12 (centres unmarked) [Example 170, 3-Ethyl-6-(4-hydroxy-phenyl)-1H-pyrazolo[3,4-b]pyridine-4-carboxylic acid (3-amino-cyclohexyl)-amide]
inhibition at 1.14 µM: 59%

Cc1n[nH]c2nc(-c3ccc(O)cc3)cc(C(=O)N3CC4CCC(C3)N4)c12 [Example 111, 3,8-Diaza-bicyclo[3.2.1]oct-3-yl-[6-(4-hydroxy-phenyl)-3-methyl-1H-pyrazolo[3,4-b]pyridin-4-yl]-methanone]
inhibition at 1.14 µM: 97%

Cc1n[nH]c2nc(-c3ccc(O)cc3)cc(C(=O)NC3CCCC[C@@H]3N)c12 (mixture of isomers) [Example 123, 6-(4-Hydroxy-phenyl)-3-methyl-1H-pyrazolo[3,4-b]pyridine-4-carboxylic acid (trans-2-amino-cyclohexyl)-amide]
inhibition at 1.14 µM: 75%

Cc1n[nH]c2nc(-c3ccc(O)cc3)cc(C(=O)NCCN3CCCC3)c12 [Example 35, 6-(4-Hydroxy-phenyl)-3-methyl-1H-pyrazolo[3,4-b]pyridine-4-carboxylic acid (2-pyrrolidin-1-yl-ethyl)-amide]
inhibition at 1.14 µM: 52%

Cc1cc(O)ccc1-c1cc(C(=O)N2CCNCC2c2ccc(F)cc2)c2c(C)n[nH]c2n1 (centres unmarked) [Example 138, [2-(4-Fluoro-phenyl)-piperazin-1-yl]-[6-(4-hydroxy-2-methyl-phenyl)-3-methyl-1H-pyrazolo[3,4-b]pyridin-4-yl]-methanone]
inhibition at 1.14 µM: 98%

Cc1n[nH]c2nc(-c3ccc(O)cc3)cc(C(=O)N3CCNC[C@H]3C)c12 [Example 23, [6-(4-Hydroxy-phenyl)-3-methyl-1H-pyrazolo[3,4-b]pyridin-4-yl]-((R)-2-methyl-piperazin-1-yl)-methanone]
inhibition at 1.14 µM: 95%

Cc1n[nH]c2nc(-c3ccc(O)cc3)cc(C(=O)NC3CCN(Cc4ccccc4)C3)c12 (centres unmarked) [Example 384, 6-(4-Hydroxy-phenyl)-3-methyl-1H-pyrazolo[3,4-b]pyridine-4-carboxylic acid (1-benzyl-pyrrolidin-3-yl)-amide]
inhibition at 1.14 µM: 67%

Cc1n[nH]c2nc(-c3ccc(O)cc3)cc(C(=O)NCC3CCC(=O)N3)c12 (centres unmarked) [Example 278, 6-(4-Hydroxy-phenyl)-3-methyl-1H-pyrazolo[3,4-b]pyridine-4-carboxylic acid (5-oxo-pyrrolidin-2-ylmethyl)-amide]
inhibition at 1.14 µM: 68%

Cc1n[nH]c2nc(-c3ccc(O)cc3)cc(C(=O)N3CCN(C(=O)C4CCCO4)CC3)c12 (centres unmarked) [Example 280, [6-(4-Hydroxy-phenyl)-3-methyl-1H-pyrazolo[3,4-b]pyridin-4-yl]-[4-(tetrahydro-furan-2-carbonyl)-piperazin-1-yl]-methanone]
inhibition at 1.14 µM: 88%

Cc1n[nH]c2nc(-c3ccc(O)c(F)c3)cc(C(=O)N3CCN[C@@H](C)C3)c12 [Example 290, [6-(3-Fluoro-4-hydroxy-phenyl)-3-methyl-1H-pyrazolo[3,4-b]pyridin-4-yl]-((S)-3-methyl-piperazin-1-yl)-methanone]
inhibition at 1.14 µM: 96%

O=C(c1cc(-c2ccc(O)cc2)nc2[nH]nc(C(F)(F)F)c12)N1CCC2(CCNCC2)CC1 [Example 411, (3,9-Diaza-spiro[5.5]undec-3-yl)-[6-(4-hydroxy-phenyl)-3-trifluoromethyl-1H-pyrazolo[3,4-b]pyridin-4-yl]-methanone]
inhibition at 1.14 µM: 24%

Cc1n[nH]c2nc(-c3ccc(O)cc3)cc(C(=O)N3CCNC(C)C3)c12 (centres unmarked) [Example 221, [6-(4-Hydroxy-phenyl)-3-methyl-1H-pyrazolo[3,4-b]pyridin-4-yl]-(3-methyl-piperazin-1-yl)-methanone]
inhibition at 1.14 µM: 100%

CO[C@H]1CNC[C@@H]1NC(=O)c1cc(-c2ccc(O)cc2C)nc2[nH]nc(C)c12 [Example 143, 6-(4-Hydroxy-2-methyl-phenyl)-3-methyl-1H-pyrazolo[3,4-b]pyridine-4-carboxylic acid ((3S,4S)-4-methoxy-pyrrolidin-3-yl)-amide]
inhibition at 1.14 µM: 84%

Cc1n[nH]c2nc(-c3ccc(O)cc3)cc(C(=O)N3CCNCC3c3ccccc3Cl)c12 (centres unmarked) [Example 102, [2-(2-Chloro-phenyl)-piperazin-1-yl]-[6-(4-hydroxy-phenyl)-3-methyl-1H-pyrazolo[3,4-b]pyridin-4-yl]-methanone]
inhibition at 1.14 µM: 93%

Cc1n[nH]c2nc(-c3ccc(O)cc3F)cc(C(=O)N3CCN[C@@H](C)C3)c12 [Example 424, [6-(2-Fluoro-4-hydroxy-phenyl)-3-methyl-1H-pyrazolo[3,4-b]pyridin-4-yl]-((S)-3-methyl-piperazin-1-yl)-methanone]
inhibition at 1.14 µM: 100%
